{"source": "patent US11053204B2", "about": "“Pyrimidinyloxy benzene derivatives as herbicides” (FMC Corporation, priority 2015, dated 2021)", "assay_type_in_all_cases": "in vivo", "key": {"[1]": {"system": "barnyardgrass (Echinochloa crus-galli)", "test": "Test C preemergence, plant response rating", "conditions": "Preemergence"}, "[2]": {"system": "pigweed (Amaranthus retroflexus)", "test": "Test C postemergence, plant response rating", "conditions": "for Plant response rating, Pigweed: scale 0 to 100; for Pigweed plant response rating: scale 0 to 100 (0 no effect, 100 complete control)", "how_it_was_run": "(§1)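 After sowing in loam–sand blend or silt loam, pots were sprayed preemergence; separately grown 1- to 4-leaf plants were sprayed postemergence. Following 13 to 15 d under greenhouse conditions, injury was rated visually on a 0 to 100 scale.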"}, "[3]": {"system": "johnsongrass (Sorghum halepense)", "test": "Test C postemergence, plant response rating", "conditions": "for Johnsongrass plant response rating: scale 0 to 100 (0 no effect, 100 complete control)", "how_it_was_run": "as §1"}, "[4]": {"system": "galium (catchweed bedstraw, Galium aparine)", "test": "Test C preemergence, plant response rating"}, "[5]": {"system": "pigweed (Amaranthus retroflexus)", "test": "Test C preemergence, plant response rating", "conditions": "Preemergence"}, "[6]": {"system": "johnsongrass (Sorghum halepense)", "test": "Test C preemergence, plant response rating"}, "[7]": {"system": "surinam grass (Brachiaria decumbens)", "test": "Test C postemergence, plant response rating", "how_it_was_run": "as §1"}, "[8]": {"system": "pigweed, palmer (palmer pigweed, Amaranthus palmeri)", "test": "Test C postemergence, plant response rating", "conditions": "for Pigweed, Palmer plant response rating: scale 0 to 100 (0 no effect, 100 complete control)", "how_it_was_run": "as §1"}, "[9]": {"system": "nightshade (eastern black nightshade, Solanum ptycanthum)", "test": "Test C postemergence, plant response rating", "conditions": "for Nightshade plant response rating: scale 0 to 100 (0 no effect, 100 complete control)", "how_it_was_run": "as §1"}, "[10]": {"system": "Canada thistle (Cirsium arvense)", "test": "Test C postemergence, plant response rating", "conditions": "for Canada Thistle plant response rating: scale 0 to 100 (0 no effect, 100 complete control)", "how_it_was_run": "as §1"}, "[11]": {"system": "buckwheat, wild (wild buckwheat, Polygonum convolvulus)", "test": "Test C postemergence, plant response rating", "conditions": "for Buckwheat, Wild plant response rating: scale 0 to 100 (0 no effect, 100 complete control)", "how_it_was_run": "as §1"}, "[12]": {"system": "wild poinsettia (Euphorbia heterophylla)", "test": "Test C postemergence, plant response rating", "conditions": "for Poinsettia, Wild plant response rating: scale 0 to 100 (0 no effect, 100 complete control)", "how_it_was_run": "as §1"}, "[13]": {"system": "windgrass (Apera spica-venti)", "test": "Test C postemergence, plant response rating", "how_it_was_run": "as §1"}, "[14]": {"system": "geranium, cutleaf (cutleaf geranium, Geranium dissectum)", "test": "Test C postemergence, plant response rating", "conditions": "for Geranium, Cutleaf plant response rating: scale 0 to 100 (0 no effect, 100 complete control)", "how_it_was_run": "as §1"}, "[15]": {"system": "wild mustard (Sinapis arvensis)", "test": "Test C postemergence, plant response rating", "conditions": "for Mustard, Wild plant response rating: scale 0 to 100 (0 no effect, 100 complete control)", "how_it_was_run": "as §1"}, "[16]": {"system": "speedwell (bird's-eye speedwell, Veronica persica)", "test": "Test C postemergence, plant response rating", "conditions": "for Speedwell plant response rating: scale 0 to 100 (0 no effect, 100 complete control)", "how_it_was_run": "as §1"}, "[17]": {"system": "field poppy (Papaver rhoeas)", "test": "Test C postemergence, plant response rating", "conditions": "for Field Poppy plant response rating: scale 0 to 100 (0 no effect, 100 complete control)", "how_it_was_run": "as §1"}, "[18]": {"system": "field violet (Viola arvensis)", "test": "Test C postemergence, plant response rating", "conditions": "for Field Violet plant response rating: scale 0 to 100 (0 no effect, 100 complete control)", "how_it_was_run": "as §1"}, "[19]": {"conditions": "125 g ai/ha, scale 0 to 100 (0 no effect, 100 complete control)"}}}
{"smiles": "O=C(OCCC(F)(F)F)c1c(Br)cccc1Oc1ncc(Br)cn1", "note": "[Compound 33]", "values": [{"measurement": "Plant response rating, Barnyardgrass", "setting": "[1]; 62 g ai/ha, scale of 0 to 100", "value": 95}, {"measurement": "Plant response rating, Barnyardgrass", "setting": "[1]; 125 g ai/ha, scale of 0 to 100", "value": 100}, {"measurement": "Plant response rating, Barnyardgrass", "setting": "[1]; 16 g ai/ha, scale 0 to 100", "value": 20}, {"measurement": "Plant response rating, Barnyardgrass", "setting": "[1]; 31 g ai/ha, scale 0 to 100", "value": 40}, {"measurement": "Plant response rating, Pigweed", "setting": "[2]; 16 g ai/ha", "value": 95}, {"measurement": "Plant response rating, Pigweed", "setting": "[2]; 31 g ai/ha", "value": 95}, {"measurement": "Pigweed plant response rating", "setting": "[2]; 62 g ai/ha", "value": 98}, {"measurement": "Pigweed plant response rating", "setting": "[2]; 125 g ai/ha", "value": 100}, {"measurement": "Plant response rating, Johnsongrass", "setting": "[3]; 16 g ai/ha, scale 0 to 100", "value": 10}, {"measurement": "Plant response rating, Johnsongrass", "setting": "[3]; 31 g ai/ha, scale 0 to 100", "value": 10}, {"measurement": "Johnsongrass plant response rating", "setting": "[3]; 62 g ai/ha", "value": 20}, {"measurement": "Johnsongrass plant response rating", "setting": "[3]; 125 g ai/ha", "value": 20}, {"measurement": "Plant response rating, Galium", "setting": "[4]; 16 g ai/ha, scale 0 to 100", "value": 0}, {"measurement": "Plant response rating, Galium", "setting": "[4]; 31 g ai/ha, scale 0 to 100", "value": 60}, {"measurement": "Plant response rating, Galium", "setting": "[4]; 62 g ai/ha, scale of 0 to 100", "value": 60}, {"measurement": "Plant response rating, Galium", "setting": "[4]; 125 g ai/ha, scale of 0 to 100", "value": 95}, {"measurement": "Plant response rating, Pigweed", "setting": "[5]; 125 g ai/ha, scale of 0 to 100", "value": 100}, {"measurement": "Plant response rating, Pigweed", "setting": "[5]; 16 g ai/ha, scale 0 to 100", "value": 80}, {"measurement": "Plant response rating, Pigweed", "setting": "[5]; 31 g ai/ha, scale 0 to 100", "value": 100}, {"measurement": "Plant response rating, Pigweed", "setting": "[5]; 62 g ai/ha, scale 0 to 100", "value": 100}, {"measurement": "Plant response rating, Johnsongrass", "setting": "[6]; 16 g ai/ha, scale 0 to 100", "value": 0}, {"measurement": "Plant response rating, Johnsongrass", "setting": "[6]; 31 g ai/ha, scale 0 to 100", "value": 5}, {"measurement": "Plant response rating, Johnsongrass", "setting": "[6]; 62 g ai/ha, scale 0 to 100", "value": 25}, {"measurement": "Plant response rating, Johnsongrass", "setting": "[6]; 125 g ai/ha, scale of 0 to 100", "value": 35}]}
{"smiles": "O=C(CCC(F)(F)C(F)(F)F)c1c(Br)cccc1Oc1ncc(Cl)cn1", "note": "[Compound 110]", "values": [{"measurement": "Plant response rating, Surinam Grass", "setting": "[7]; 16 g ai/ha, scale of 0 to 100", "value": 15}, {"measurement": "Plant response rating, Surinam Grass", "setting": "[7]; 31 g ai/ha, scale 0 to 100", "value": 20}, {"measurement": "Surinam Grass plant response rating", "setting": "[7]; [19]", "value": 25}, {"measurement": "Plant response rating, Pigweed, Palmer", "setting": "[8]; 16 g ai/ha, scale of 0 to 100", "value": 75}, {"measurement": "Plant response rating, Pigweed, Palmer", "setting": "[8]; 31 g ai/ha, scale 0 to 100", "value": 95}, {"measurement": "Pigweed, Palmer plant response rating", "setting": "[8]; 62 g ai/ha", "value": 98}, {"measurement": "Pigweed, Palmer plant response rating", "setting": "[8]; 125 g ai/ha", "value": 95}, {"measurement": "Plant response rating, Nightshade", "setting": "[9]; 16 g ai/ha, scale of 0 to 100", "value": 75}, {"measurement": "Plant response rating, Nightshade", "setting": "[9]; 31 g ai/ha, scale 0 to 100", "value": 85}, {"measurement": "Nightshade plant response rating", "setting": "[9]; 62 g ai/ha", "value": 95}, {"measurement": "Nightshade plant response rating", "setting": "[9]; 125 g ai/ha", "value": 98}, {"measurement": "Plant response rating, Canada Thistle", "setting": "[10]; 16 g ai/ha, scale of 0 to 100", "value": 65}, {"measurement": "Plant response rating, Canada Thistle", "setting": "[10]; 31 g ai/ha, scale 0 to 100", "value": 90}, {"measurement": "Canada Thistle plant response rating", "setting": "[10]; 62 g ai/ha", "value": 98}, {"measurement": "Canada Thistle plant response rating", "setting": "[10]; 125 g ai/ha", "value": 95}, {"measurement": "Plant response rating, Buckwheat, Wild", "setting": "[11]; 16 g ai/ha, scale of 0 to 100", "value": 85}, {"measurement": "Plant response rating, Buckwheat, Wild", "setting": "[11]; 31 g ai/ha, scale 0 to 100", "value": 85}, {"measurement": "Buckwheat, Wild plant response rating", "setting": "[11]; 62 g ai/ha", "value": 95}, {"measurement": "Buckwheat, Wild plant response rating", "setting": "[11]; 125 g ai/ha", "value": 80}, {"measurement": "Plant response rating, Johnsongrass", "setting": "[3]; 16 g ai/ha, scale of 0 to 100", "value": 5}, {"measurement": "Plant response rating, Johnsongrass", "setting": "[3]; 31 g ai/ha, scale 0 to 100", "value": 10}, {"measurement": "Johnsongrass plant response rating", "setting": "[3]; 62 g ai/ha", "value": 10}, {"measurement": "Johnsongrass plant response rating", "setting": "[3]; 125 g ai/ha", "value": 15}, {"measurement": "Plant response rating, Poinsettia, Wild", "setting": "[12]; 16 g ai/ha, scale of 0 to 100", "value": 40}, {"measurement": "Plant response rating, Poinsettia, Wild", "setting": "[12]; 31 g ai/ha, scale 0 to 100", "value": 65}, {"measurement": "Poinsettia, Wild plant response rating", "setting": "[12]; 62 g ai/ha", "value": 80}, {"measurement": "Poinsettia, Wild plant response rating", "setting": "[12]; 125 g ai/ha", "value": 90}, {"measurement": "Plant response rating, Windgrass", "setting": "[13]; 16 g ai/ha, scale of 0 to 100", "value": 20}, {"measurement": "Plant response rating, Windgrass", "setting": "[13]; 31 g ai/ha, scale 0 to 100", "value": 25}, {"measurement": "Windgrass plant response rating", "setting": "[13]; [19]", "value": 30}, {"measurement": "Plant response rating, Geranium, Cutleaf", "setting": "[14]; 16 g ai/ha, scale of 0 to 100", "value": 5}, {"measurement": "Plant response rating, Geranium, Cutleaf", "setting": "[14]; 31 g ai/ha, scale 0 to 100", "value": 30}, {"measurement": "Geranium, Cutleaf plant response rating", "setting": "[14]; 62 g ai/ha", "value": 40}, {"measurement": "Geranium, Cutleaf plant response rating", "setting": "[14]; 125 g ai/ha", "value": 60}, {"measurement": "Plant response rating, Mustard, Wild", "setting": "[15]; 16 g ai/ha, scale of 0 to 100", "value": 90}, {"measurement": "Plant response rating, Mustard, Wild", "setting": "[15]; 31 g ai/ha, scale 0 to 100", "value": 90}, {"measurement": "Mustard, Wild plant response rating", "setting": "[15]; 62 g ai/ha", "value": 100}, {"measurement": "Mustard, Wild plant response rating", "setting": "[15]; 125 g ai/ha", "value": 100}, {"measurement": "Plant response rating, Speedwell", "setting": "[16]; 16 g ai/ha, scale of 0 to 100", "value": 60}, {"measurement": "Plant response rating, Speedwell", "setting": "[16]; 31 g ai/ha, scale 0 to 100", "value": 95}, {"measurement": "Speedwell plant response rating", "setting": "[16]; 62 g ai/ha", "value": 90}, {"measurement": "Speedwell plant response rating", "setting": "[16]; 125 g ai/ha", "value": 95}, {"measurement": "Plant response rating, Field Poppy", "setting": "[17]; 16 g ai/ha, scale of 0 to 100", "value": 85}, {"measurement": "Plant response rating, Field Poppy", "setting": "[17]; 31 g ai/ha, scale 0 to 100", "value": 100}, {"measurement": "Field Poppy plant response rating", "setting": "[17]; 62 g ai/ha", "value": 100}, {"measurement": "Field Poppy plant response rating", "setting": "[17]; 125 g ai/ha", "value": 100}, {"measurement": "Plant response rating, Field Violet", "setting": "[18]; 16 g ai/ha, scale of 0 to 100", "value": 80}, {"measurement": "Plant response rating, Field Violet", "setting": "[18]; 31 g ai/ha, scale 0 to 100", "value": 95}, {"measurement": "Field Violet plant response rating", "setting": "[18]; 62 g ai/ha", "value": 95}, {"measurement": "Field Violet plant response rating", "setting": "[18]; 125 g ai/ha", "value": 100}]}
